Reference: patent US12084436B2, “Heterocyclic compound” (Takeda Pharmaceutical Company Limited, priority 2019, dated 2024)

molecular target: T1, HDAC6 enzyme (Homo sapiens, UniProt Q9UBN7); assay: HDAC6 enzyme inhibitory assay (HDAC-Glo I/II Assay kit, luminescence); type: biochemical; conditions: 10 μM test compound; wells without enzyme = 100% inhibition; read-out: HDAC6 inhibitory rate (%) (10 μM)
T1 construct: prepared by transducing full length HDAC6 gene into Sf-9 insect cells; GST; purchased SignalChem; host or cells: Sf-9 insect cells
T1 sequence (Q9UBN7 1-1215): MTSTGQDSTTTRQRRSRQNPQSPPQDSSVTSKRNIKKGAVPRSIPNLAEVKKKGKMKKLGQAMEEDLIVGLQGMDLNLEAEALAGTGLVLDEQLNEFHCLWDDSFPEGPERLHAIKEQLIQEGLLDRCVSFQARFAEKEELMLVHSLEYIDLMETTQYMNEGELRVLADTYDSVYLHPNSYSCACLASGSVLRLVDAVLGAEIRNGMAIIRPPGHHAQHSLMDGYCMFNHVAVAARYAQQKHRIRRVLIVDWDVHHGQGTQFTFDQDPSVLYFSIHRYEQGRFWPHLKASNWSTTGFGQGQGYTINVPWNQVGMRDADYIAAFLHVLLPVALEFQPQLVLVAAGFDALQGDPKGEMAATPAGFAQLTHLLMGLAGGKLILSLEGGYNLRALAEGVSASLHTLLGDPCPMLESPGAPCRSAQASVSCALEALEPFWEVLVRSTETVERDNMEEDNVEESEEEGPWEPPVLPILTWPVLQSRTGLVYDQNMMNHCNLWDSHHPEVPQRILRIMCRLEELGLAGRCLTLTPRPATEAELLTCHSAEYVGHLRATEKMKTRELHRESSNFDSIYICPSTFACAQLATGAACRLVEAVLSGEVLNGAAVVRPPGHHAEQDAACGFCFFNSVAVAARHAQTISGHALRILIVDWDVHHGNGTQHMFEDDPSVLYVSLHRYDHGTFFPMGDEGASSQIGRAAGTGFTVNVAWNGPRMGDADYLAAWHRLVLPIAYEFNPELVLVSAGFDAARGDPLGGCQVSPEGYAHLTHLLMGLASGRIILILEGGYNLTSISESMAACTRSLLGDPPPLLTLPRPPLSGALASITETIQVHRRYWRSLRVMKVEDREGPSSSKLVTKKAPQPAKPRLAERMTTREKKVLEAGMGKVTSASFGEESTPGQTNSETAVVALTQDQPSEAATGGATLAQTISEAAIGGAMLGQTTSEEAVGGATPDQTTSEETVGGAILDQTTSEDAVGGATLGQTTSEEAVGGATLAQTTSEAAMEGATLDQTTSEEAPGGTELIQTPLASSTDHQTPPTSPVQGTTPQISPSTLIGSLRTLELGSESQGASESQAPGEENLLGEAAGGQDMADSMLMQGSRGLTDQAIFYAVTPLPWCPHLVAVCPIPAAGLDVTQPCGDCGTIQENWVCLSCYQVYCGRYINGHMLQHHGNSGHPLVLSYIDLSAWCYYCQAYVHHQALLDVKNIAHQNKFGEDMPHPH
Protocol: HDAC6 Enzyme Inhibitory Assay
HDAC6 enzyme prepared by transducing full length HDAC6 gene into Sf-9 insect cells and purifying by GST affinity column were purchased from SignalChem. Using this enzyme, HDAC6 enzyme inhibitory activities of the compound of the present invention were evaluated. Enzymes were used after preserved at −70° C. HDAC6 enzyme inhibitory activity of the compound of the present invention was measured using HDAC-Glo™ I/II Assay kit (Promega) according to the following experimental method. The test compound diluted with assay buffer (24 mM Tris-HCl (pH 7.5), 1 mM MgCl2, 0.35 mM KCl, 135 mM NaCl, 0.6 mM Glutathione, 0.01% Tween-20) was added to a 384-well plate by each 2 μL. Then, HDAC6 enzyme solution diluted with assay buffer was added thereto by each 4 μL, and the plate was incubated at room temperature for 60 min. After incubated, HDAC substrate-Developer solution prepared according to Promega protocol attached to the assay kit was added to the 384-well plate by each 2 μL, and the enzyme reaction was started. After reacting at room temperature for 20 min, luminescence level was measured using plate reader Envision (PerkinElmer). The inhibitory activity of each compound of Example was calculated as a relative activity value when luminescence level in wells without enzyme is considered as 100% inhibition.

Row | inhibition at 10 µM | SMILES
1 | 97% | CN1CCC(COc2cccnc2-c2cc(F)cc(-c3nnc(C(F)F)o3)c2)CC1=O (centres unmarked) [Example 14a, 4-{[(2-{3-[5-(difluoromethyl)-1,3,4-oxadiazol-2-yl]-5-fluorophenyl}pyridin-3-yl)oxy]methyl}-1-methylpiperidin-2-one]
2 | 98% | CN1C(=O)c2cc(-c3nnc(C(F)F)o3)ccc2OC1(C)C1CCCCC1 (centres unmarked) [Example 14b, 2-cyclohexyl-6-[5-(difluoromethyl)-1,3,4-oxadiazol-2-yl]-2,3-dimethyl-2,3-dihydro-4H-1,3-benzoxazin-4-one]
3 | 100% | O=C(CC(F)(F)F)N(Cc1ccc(F)cc1)N1Cc2ccc(-c3nnc(C(F)F)o3)cc2C1=O [Example 14c, N-{6-[5-(difluoromethyl)-1,3,4-oxadiazol-2-yl]-1-oxo-1,3-dihydro-2H-isoindol-2-yl}-3,3,3-trifluoro-N-[(4-fluorophenyl)methyl]propanamide]
4 | 92% | O=C1CCCN1CCOc1cccnc1-c1cc(F)cc(-c2nnc(C(F)F)o2)c1 [Example 15a, 1-{2-[(2-{3-[5-(difluoromethyl)-1,3,4-oxadiazol-2-yl]-5-fluorophenyl}pyridin-3-yl)oxy]ethyl}pyrrolidin-2-one]
5 | 88% | O=C1NN(CC(F)(F)F)Cc2ccc(-c3nnc(C(F)F)o3)cc21 [Example 15b, 7-[5-(difluoromethyl)-1,3,4-oxadiazol-2-yl]-3-(2,2,2-trifluoroethyl)-3,4-dihydrophthalazin-1(2H)-one]
6 | 99% | O=C1c2cc(-c3nnc(C(F)F)o3)ccc2CN1NCc1ccc(F)cn1 [Example 15c, 6-[5-(difluoromethyl)-1,3,4-oxadiazol-2-yl]-2-{[(5-fluoropyridin-2-yl)methyl]amino}-2,3-dihydro-1H-isoindol-1-one]
7 | 98% | CC(C)(C)OC(=O)N1CCC(Oc2cccnc2-c2cc(F)cc(-c3nnc(C(F)F)o3)c2)CC1 [Example 16a, tert-butyl 4-[(2-{3-[5-(difluoromethyl)-1,3,4-oxadiazol-2-yl]-5-fluorophenyl}pyridin-3-yl)oxy]piperidine-1-carboxylate]
8 | 98% | CN1C(=O)c2cc(-c3nnc(C(F)F)o3)ccc2OC1(C)c1ccccc1Cl (centres unmarked) [Example 16b, 2-(2-chlorophenyl)-6-[5-(difluoromethyl)-1,3,4-oxadiazol-2-yl]-2,3-dimethyl-2,3-dihydro-4H-1,3-benzoxazin-4-one]
9 | 100% | O=C(OCC(F)F)N(Cc1ccc(F)cc1)N1Cc2ccc(-c3nnc(C(F)F)o3)cc2C1=O [Example 16c, 2,2-difluoroethyl {6-[5-(difluoromethyl)-1,3,4-oxadiazol-2-yl]-1-oxo-1,3-dihydro-2H-isoindol-2-yl}[(4-fluorophenyl)methyl]carbamate]
10 | 96% | CC(C)(C)OC(=O)N1CCCC1COc1cccnc1-c1cc(F)cc(-c2nnc(C(F)F)o2)c1 (centres unmarked) [Example 17a]
11 | 100% | CN1C(=O)c2cc(-c3nnc(C(F)F)o3)ccc2OC1(C)c1ccc(C(F)(F)F)cc1 (centres unmarked) [Example 17b, 6-[5-(difluoromethyl)-1,3,4-oxadiazol-2-yl]-2,3-dimethyl-2-[4-(trifluoromethyl)phenyl]-2,3-dihydro-4H-1,3-benzoxazin-4-one]
12 | 98% | O=C1c2cc(-c3nnc(C(F)F)o3)ccc2CN1NCC1CCOCC1 [Example 17c, 6-[5-(difluoromethyl)-1,3,4-oxadiazol-2-yl]-2-{[(oxan-4-yl)methyl]amino}-2,3-dihydro-1H-isoindol-1-one]
13 | 98% | CC1(COc2cccnc2-c2cc(F)cc(-c3nnc(C(F)F)o3)c2)COC1 [Example 18a]
14 | 99% | COc1ccc(C2(C)Oc3ccc(-c4nnc(C(F)F)o4)cc3C(=O)N2C)cc1 (centres unmarked) [Example 18b, 6-[5-(difluoromethyl)-1,3,4-oxadiazol-2-yl]-2-(4-methoxyphenyl)-2,3-dimethyl-2,3-dihydro-4H-1,3-benzoxazin-4-one]
15 | 99% | O=C1c2cc(-c3nnc(C(F)F)o3)ccc2CN1N(CC1CCOCC1)CC1CCOCC1 [Example 18c, 2-{bis[(oxan-4-yl)methyl]amino}-6-[5-(difluoromethyl)-1,3,4-oxadiazol-2-yl]-2,3-dihydro-1H-isoindol-1-one]
16 | 99% | O=C1COC[C@@H](Cc2ccccc2)N1c1cc(-c2nnc(C(F)F)o2)ccn1 [Example 19a, (5R)-5-benzyl-4-{4-[5-(difluoromethyl)-1,3,4-oxadiazol-2-yl]pyridin-2-yl}morpholin-3-one]
17 | 100% | CN1C(=O)c2cc(-c3nnc(C(F)F)o3)ccc2OC1(C)c1cccc(Cl)c1 (centres unmarked) [Example 19b, 2-(3-chlorophenyl)-6-[5-(difluoromethyl)-1,3,4-oxadiazol-2-yl]-2,3-dimethyl-2,3-dihydro-4H-1,3-benzoxazin-4-one]
18 | 98% | O=C1c2cc(-c3nnc(C(F)F)o3)ccc2CN1NCCc1ccc(F)cc1F [Example 19c, 6-[5-(difluoromethyl)-1,3,4-oxadiazol-2-yl]-2-{[2-(2,4-difluorophenyl)ethyl]amino}-2,3-dihydro-1H-isoindol-1-one]
19 | 97% | Fc1cc(-c2nnc(C(F)F)o2)cc(-c2nccn2Cc2ccccc2Cl)c1 [Example 20a, 2-(3-{1-[(2-chlorophenyl)methyl]-1H-imidazol-2-yl]-5-fluorophenyl)-5-(difluoromethyl)-1,3,4-oxadiazole]
20 | 99% | CN1C(=O)c2cc(-c3nnc(C(F)F)o3)ccc2OC1(C)c1ccc(C#N)cc1 (centres unmarked) [Example 20b, 4-{6-[5-(difluoromethyl)-1,3,4-oxadiazol-2-yl]-2,3-dimethyl-4-oxo-3,4-dihydro-2H-1,3-benzoxazin-2-yl}benzonitrile]
21 | 93% | Fc1cc(-c2nnc(C(F)F)o2)cc(-c2nccn2Cc2cccc(Cl)c2)c1 [Example 21a, 2-(3-[1-[(3-chlorophenyl)methyl]-1H-imidazol-2-yl}-5-fluorophenyl)-5-(difluoromethyl)-1,3,4-oxadiazole]
22 | 99% | CN1C(=O)c2cc(-c3nnc(C(F)F)o3)ccc2OC1(C)c1ccc(OC(F)(F)F)cc1 (centres unmarked) [Example 21b, 6-[5-(difluoromethyl)-1,3,4-oxadiazol-2-yl]-2,3-dimethyl-2-[4-(trifluoromethoxy)phenyl]-2,3-dihydro-4H-1,3-benzoxazin-4-one]
23 | 99% | O=C1c2cc(-c3nnc(C(F)F)o3)ccc2CN1N(CCC1CCOCC1)Cc1ccc(F)cc1 [Example 21c, 6-[5-(difluoromethyl)-1,3,4-oxadiazol-2-yl]-2-{[(4-fluorophenyl)methyl][2-(oxan-4-yl)ethyl]amino}-2,3-dihydro-1H-isoindol-1-one]
24 | 99% | Fc1cc(-c2nnc(C(F)F)o2)cc(-c2nccn2Cc2ccc(Cl)cc2)c1 [Example 22a, 2-(3-{1-[(4-chlorophenyl)methyl]-1H-imidazol-2-yl}-5-fluorophenyl)-5-(difluoromethyl)-1,3,4-oxadiazole]
25 | 100% | Cc1ccc(C2(C)Oc3ccc(-c4nnc(C(F)F)o4)cc3C(=O)N2C)cc1 (centres unmarked) [Example 22b, 6-[5-(difluoromethyl)-1,3,4-oxadiazol-2-yl]-2,3-dimethyl-2-(4-methylphenyl)-2,3-dihydro-4H-1,3-benzoxazin-4-one]
26 | 100% | CC(NN1Cc2ccc(-c3nnc(C(F)F)o3)cc2C1=O)c1ccc(F)cc1 (centres unmarked) [Example 22c, 6-[5-(difluoromethyl)-1,3,4-oxadiazol-2-yl]-2-{[1-(4-fluorophenyl)ethyl]amino}-2,3-dihydro-1H-isoindol-1-one]
